“Also recorded” adds a separate entry of the source.
Assays:
[1] = system: poly (dG.dC) - poly (dG.dC); experiment: Ethidium bromide displacement, poly(dG.dC)-poly(dG.dC); format: binding; details: for Ratio (AT/GC): FI50 poly(dA.dT)-poly(dA.dT) / FI50 poly(dG.dC)-poly(dG.dC); for IC50: ethidium bromide displacement, 1 μM DNA, 1.26 μM ethidium bromide, pH 7.0, read-out: FI50, poly (dG.dC) - poly (dG.dC)
Method: (§1) A 10× Binding solution was prepared by combining 0.93 ml of an aqueous NaCl solution (5M), 2.0 ml of an aqueous Tris HCl (500 mM) solution, 0.1 ml of an EDTA solution (500 mM) and 46.97 ml of water. The resultant solution was 93 mM in NaCl, 20 mM in Tris HCl, and 1 mM in EDTA. Stock DNA solution were prepared as follows: Poly (dG·dC)-(dG·dC) (ε254=8.4/mM; 27-7910-02), poly(dA·dT)-(dA·dT) (ε262=6.6/mM; 27-7870-02), and lambda DNA (ε260-7.0/mM; 27-4111-01) were purchased from Pharmacia. Solutions were prepared by resuspending either poly (dG·dC)-(dG·dC) or poly(dA·dT)-(dA·dT)in 1 ml of 10× DNA Binding Solution. Lambda DNA is already in solution as purchased.
(§2) Poly (dG·dC)-(dG·dC), poly(dA·dt)-(dA·dt) and lambda DNA concentrations were determined as follows: 980 μl of 10× DNA Binding Solution was pipetted into a 1 ml cuvette. A blank was run on the UV spectrophotometer. 20 μl of the DNA stock of unknown concentration was then added into the cuvette. The sample was then scanned between 210 nm to 500 nm and the absorbance recorded at 254 nm for poly(dG·dC)-(dG·dC), at 262 nm for poly(dA·dT)-(dA·dT) and at 260 nm for lambda DNA. The solution was transferred to a clean tube. This procedure was followed for three different solutions with the absorbance taken as the average of the three. The concentration of poly(dG·dC)-(dG·dC) stock was calculated to be A254 /8.4×1000 (in μM). The concentration of poly(dA·dT)-(dA·dT) stock was calculated to be A262 /6.6×1000 (in μM). The concentration of lambda DNA stock was calculated to be A260 /7.0×1000 (in μM).
(§3) The binding of the bis-naphthalimides to DNA and to synthetic polynucleotide duplexes was determined by an ethidium bromide displacement assay that measures the reduction of fluorescence when ethidium bromide is displaced from DNA (Baguley, 1981). The fluorescence intensity of a 3 ml solution containing 9.3 mM NaCl, 2 mM Tris-HCl (pH 7.0), 100 μM EDTA, 1 μM DNA (in nucleotides) and 1.26 μM ethidium bromide in a quartz cuvette was measured at the excitation (546 nm) and emission (600 nm) wavelengths on a Shimadzu RF5000U spectrofluorometer. Graded concentrations of agent were then added and the fluorescence intensity was measured. The concentration of compound required to reduce the fluorescence intensity by 50% of that of control (FI50) was determined. Therefore, the lower the FI50 the stronger the binding affinity a particular compound has for DNA.
(§4) The ability of bis-naphthalimides of the present invention and the known anti-cancer agents compound 22 and DMP840, (R,R)-2,2'[1,2-ethanediylbis[imino(1-methyl-2,1-ethanediyl)]]-bis[5-nitro- 1H benz[de]isoquinoline-1,3-(2H)dione]dimethanesulfonate, to bind to DNA and to synthetic oligonucleotide duplexes was measured using an ethidium bromide displacement assay. Ethidium bromide, a known DNA intercalator, has no fluorescence in the absence of DNA; however, fluorescence intensity increases when ethidium bromide binds to DNA. The ethidium bromide displacement assay measures the decrease in fluorescence intensity caused by DNA-bound ethidium bromide with DNA interacting agents.

[2] = system: HT29 Human Colon Carcinoma cell line; experiment: In vitro growth inhibition (MTT), HT29 colon carcinoma; format: cell-based; details: 6 days
From the text: (§5) P388 murine leukemic cell line was obtained from the DCT Tumor Repository (National Cancer Institute, Frederick Cancer Research and Development, Frederick Md. 21702). HT29 Human Colon Carcinoma cell line was obtained from the American Type Culture Collection (12301 Parklawn Drive, Rockville, Md. 20852). B16 Melanoma cell line was obtained from DuPont Merck Pharmaceutical Company (Glenolden, Pa. 19036). MCF-7 Human Breast Carcinoma cell line was a gift from Dr. K. Osborne (Department of Medicine, The University of Texas Health Science Center at San Antonio, San Antonio, Tex. 78284). All cell lines were incubated at 37° C. in a humidified atmosphere of 5% CO2 -95% air. Murine B16 melanoma cell line was grown in RPMI 1640 medium supplemented with 10% heat-inactivated fetal bovine serum, 2 mM L-glutamine, 50 units/ml penicillin, 50 μg/ml streptomycin, 25 μg/ml gentamycin, 0.75% sodium bicarbonate, 10 mM HEPES buffer (pH 7.4), and 0.06 mg/ml AntiPPLO. Murine P388 leukemic and the human HT-29 colon adenocarcinoma cell lines were maintained in RPMI 1640 medium supplemented with 10% heat-inactivated fetal bovine serum. MCF-7M human breast adenocarcinoma was maintained in IMEM medium supplemented with 5% non heat-inactivated fetal bovine serum and 1 nM insulin.
(§6) Exponentially growing cells (1-2×10^3 cells, unless specified otherwise) in 0.1 ml medium were seeded on day 0 in a 96-well microtiter plate. On day 1, 0.1 ml aliquots of medium containing graded concentrations of test compounds were added in duplicate to the cell plates. After incubation at 37° C. in a humidified incubator for 3 days (P388, B16) or 6 days (HT-29, MCF-7M), the plates were centrifuged briefly and 100 μl of the growth medium was removed. Cell cultures were incubated with 50 μl of 3-(4,5-dimethylthiazol-2-yl)-2,5-diphenyl-tetrazolium bromide [MTT, 1 mg/ml in Dulbecco's phosphate buffered saline (PBS)] for 4 hr at 37° C. The resulting purple formazan precipitate was solubilized with 200 μl of 0.04N HCl in isopropyl alcohol. Absorbance was monitored in a BioRad Model 3550 Microplate Reader at a test wavelength of 570 nm and a reference wavelength of 630 nm. The absorbance was transferred to a PC 486 computer. The IC50 values were determined by a computer program (EZ-ED50) that fit all of the data to the following four-parameterlogistic equation:
(§7) Y=((Am -Ao)/(1+(X/IC50)^n))+Ao
(§8) where Am is the absorbance of control cells, Ao is the absorbance of cells in the presence of highest agent concentration, Y is the observed absorbance, X is the agent concentration, IC50 is the concentration of agent that inhibits the cell growth by 50% of control cells (based on the absorbance) and n is the slope of the curve.

[3] = system: P388 murine leukemic cell line; experiment: In vitro growth inhibition (MTT), P388 leukemia; format: cell-based; details: 3 days
From the text: as §5, §6, §7, §8

Lambda DNA = experiment: Ethidium bromide displacement, lambda DNA; format: binding; details: 1 μM DNA, 1.26 μM ethidium bromide, pH 7.0, read-out: FI50, Lambda DNA
Method: as §1, §2, §3, §4

[4] = system: MCF-7 Human Breast Carcinoma cell line; experiment: In vitro growth inhibition (MTT), MCF-7 breast carcinoma; format: cell-based; details: 6 days
From the text: as §5, §6, §7, §8

[5] = target: poly (dA.dT) - poly (dA.dT); experiment: Ethidium bromide displacement, poly(dA.dT)-poly(dA.dT); format: binding; details: 1 μM DNA, 1.26 μM ethidium bromide, pH 7.0, read-out: FI50, poly (dA.dT) - poly (dA.dT)
Method: as §1, §2, §3, §4

[6] = system: Murine B16 melanoma cell line; experiment: In vitro growth inhibition (MTT), B16 melanoma; format: cell-based; details: MTT, 3 days
From the text: as §5, §6, §7, §8

DNA = experiment: Ethidium bromide displacement, DNA binding in general
Method: as §3
as §4, with “The ethidium bromide displacement assay measures the decrease in fluorescence intensity caused by DNA-bound ethidium bromide with DNA interacting agents.” left out

B16 murine melanoma = experiment: B16 melanoma in vivo, survival of B6D2F1 mice; details: for T/C: mean survival treated/control
Method: B6D2F1 mice received i.p. inocula of B16 murine melanoma brei prepared from B16 tumors growing subcutaneously in mice (day 0). On day 1, rumored mice were treated with drugs or vehicle control; the route of drug administration and schedule were selected as appropriate for the study in question. If dosing information for agents was not available, the maximum tolerated dose (MTD) was determined in initial dose finding experiments in non-tumored mice. In a typical experiment, drugs were given at their MTD and 1/2 MTD doses i.p. on a daily×5 schedule.
The mean survival times of all groups were calculated, and results were expressed as mean survival of treated mice/mean survival of control mice (T/C)×100%. A T/C value of 150 means that the mice in the treated group lived 50% longer than those of the control group; this is sometimes referred to as the increase in life space, or ILS value.
Mice that survived for 60 days were considered long term survivors, or cures, in the B16 model. The universally accepted cut-off for activity in this model, which has been used for years by the National Cancer Institute, is T/C=125.
Statistics were performed on the data using primarily the log rank p-value test.

With `O=C1c2cccc3cc([N+](=O)[O-])cc(c23)C(=O)N1CCNCCS(=O)(=O)CCN1C(=O)c2cccc3cc([N+](=O)[O-])cc(c23)C1=O` [Compound 14] the “Ratio (AT/GC)” value [1] was 64.38, the IC50 [1] was 672 nM and the IC50 ([2]; Homo sapiens, HT-29, 144 h) was 44 nM. It also gave an IC50 ([3]; Mus musculus, P388, 72 h) of 27 nM, an IC50 (Lambda DNA) of 24200 nM and an IC50 [4] of 132 nM. The IC50 [5] was 43300 nM and the IC50 [6] was 86 nM.
For `O=C1c2cccc3cc([N+](=O)[O-])cc(c23)C(=O)N1CCNCC[S+]([O-])CCN1C(=O)c2cccc3cc([N+](=O)[O-])cc(c23)C1=O` (stereo not shown) [Compound 12], the “Ratio (AT/GC)” value [1] was 51.06, the IC50 [1] was 125 nM and the IC50 [2] was 1.7 nM. The IC50 ([3]; Mus musculus, P388, 72 h) was 9 nM, the IC50 (Lambda DNA) was 169 nM and the IC50 [4] was 1.6 nM. For the same molecule, the IC50 [5] was 6380 nM and the IC50 [6] was 6.3 nM.
For `O=C1c2cccc3cc([N+](=O)[O-])cc(c23)C(=O)N1CCNCCSCCN1C(=O)c2cccc3cc([N+](=O)[O-])cc(c23)C1=O` [Compound 10, 5-[2-(3-Nitronaphthalene-1,8-dicarboximido)ethylamino]-1-(3-nitronaphthalene-1,8-dicarboximido)-3-thiopentane], the “Ratio (AT/GC)” value [1] was 22.3, the IC50 [1] was 770 nM and the IC50 ([3]; Mus musculus, P388, 72 h) was 56.5 nM. For the same molecule, the IC50 (Lambda DNA) was 7370 nM, the IC50 ([4]; Homo sapiens, MCF7, 144 h) was 9 nM and the IC50 [5] was 17200 nM. It also gave an IC50 ([6]; Mus musculus, B16, 72 h) of 33 nM.
`O=C1c2cccc3cc([N+](=O)[O-])cc(c23)C(=O)N1CCNCCS(=O)(=O)CCN1C(=O)c2cccc3cc([N+](=O)[O-])cc(c23)C1=O` [Compound 15, 5-[2-(3-Nitronaphthalene-1,8-dicarboximido)ethylamino]-1-(3-nitronaphthalene-1,8-dicarboximido)-3-sulfonylpentane hydromethanesulfonate] was tested, and the “Ratio (AT/GC)” value [1] was 144.4, the IC50 [1] was 118 nM and the IC50 [2] was 22 nM. For the same molecule, the IC50 [3] was 29.9 nM, the IC50 (Lambda DNA) was 1030 nM and the IC50 [4] was 36 nM. The IC50 [5] was 17100 nM and the IC50 [6] was 34 nM.
`O=C1c2cccc3cc([N+](=O)[O-])cc(c23)C(=O)N1CCNCCOCCN1C(=O)c2cccc3cc([N+](=O)[O-])cc(c23)C1=O` [Compound 6] was tested, and the “DNA binding (in words)” value (DNA) was “dose-dependent decrease in fluorescence intensity”, the “60-Day Survivors” value (B16 murine melanoma; 15 mg/kg, q.d. × 5, i.p.) was 0 and the “Wt. Ch. (%) (Day 7)” value (B16 murine melanoma; 15 mg/kg, q.d. × 5, i.p.) was -7.4%. For the same molecule, the T/C (B16 murine melanoma; 15 mg/kg, q.d. × 5, i.p.) was 210%, the “60-Day Survivors” value (B16 murine melanoma; 30 mg/kg, q.d. × 5, i.p.) was 0 and the “Wt. Ch. (%) (Day 7)” value (B16 murine melanoma; 30 mg/kg, q.d. × 5, i.p.) was -16.4%. The T/C (B16 murine melanoma; 30 mg/kg, q.d. × 5, i.p.) was 233% and the “activity against B16 melanoma in vivo (in words)” value (B16 murine melanoma; mouse, in vivo) was “potent activity against B16 melanoma in vivo; also recorded: remarkable activity; also recorded: more active in this model than DMP840, compounds 22 and 23, and cytoxan; also recorded: more effective against B16 melanoma compared with DMP840”.
With `O=C1c2cccc3cc([N+](=O)[O-])cc(c23)C(=O)N1CCNCCNCCN1C(=O)c2cccc3cc([N+](=O)[O-])cc(c23)C1=O` [Compound 23, 2,2'[1,2-ethanediylbis[imino(2,1-ethanediyl)]]-bis[5-nitro-1H-benz[de]isoquinoline-1,3-(2H)-dione]] the “60-Day Survivors” value (B16 murine melanoma; 2.5 mg/kg, q.d. × 5, i.p.) was 0, the “Wt. Ch. (%) (Day 7)” value (B16 murine melanoma; 2.5 mg/kg, q.d. × 5, i.p.) was 0.95% and the T/C (B16 murine melanoma; 2.5 mg/kg, q.d. × 5, i.p.) was 162%.
`O=C1c2cccc3cc([N+](=O)[O-])cc(c23)C(=O)N1CCNCC[S+]([O-])CCN1C(=O)c2cccc3cc([N+](=O)[O-])cc(c23)C1=O` (stereo not shown) [Compound 13] was tested, and the “Ratio (AT/GC)” value [1] was 212.6, the IC50 [1] was 18 nM and the IC50 [2] was 0.2 nM. The IC50 [3] was under 5 nM, the IC50 (Lambda DNA) was 180 nM and the IC50 [4] was under 0.1 nM. The IC50 [5] was 3850 nM and the IC50 [6] was 1.6 nM.
In the case of `O=P1(N(CCCl)CCCl)NCCCO1` (stereo not shown) [Cytoxan], the “60-Day Survivors” value (B16 murine melanoma; 150 mg/kg, q.d. × 5, i.p.) is reported as 0, the “Wt. Ch. (%) (Day 7)” value (B16 murine melanoma; 150 mg/kg, q.d. × 5, i.p.) is reported as -12.2% and the T/C (B16 murine melanoma; 150 mg/kg, q.d. × 5, i.p.) is reported as 175%. For the same molecule, the “60-Day Survivors” value (B16 murine melanoma; 300 mg/kg, q.d. × 1, i.p.) was 0, the “Wt. Ch. (%) (Day 7)” value (B16 murine melanoma; 300 mg/kg, q.d. × 1, i.p.) was -6.6% and the T/C (B16 murine melanoma; 300 mg/kg, q.d. × 1, i.p.) was 197%. The highest effective dose (B16 murine melanoma; mouse, in vivo) was 300 mg/kg.
With `O=C1c2cccc3cc([N+](=O)[O-])cc(c23)C(=O)N1CCNCCNCCN1C(=O)c2cccc3cc([N+](=O)[O-])cc(c23)C1=O` [Compound 22, 2,2'[1,2-ethanediylbis[imino(2,1-ethanediyl)]]-bis[5-nitro-1H-benz[de]isoquinoline-1,3-(2H)-dione]dimethanesulfonate] the “Ratio (AT/GC)” value [1] was 16.5, the “60-Day Survivors” value (B16 murine melanoma; 2.5 mg/kg, q.d. × 5, i.p.) was 0 and the “Wt. Ch. (%) (Day 7)” value (B16 murine melanoma; 2.5 mg/kg, q.d. × 5, i.p.) was -0.17%. The T/C (B16 murine melanoma; 2.5 mg/kg, q.d. × 5, i.p.) was 141%.
